According to publication PMC9814250, “Single step syntheses of (1S)-aryl-tetrahydroisoquinolines by norcoclaurine synthases” (Communications Chemistry, 2020):

Assays:
[1] = target: T1, MxSafC (Myxococcus xanthus, UniProt Q50859); experiment: HPLC, O-methylation to C6-OMe-7b; assay type: biochemical; settings: SAM generated in situ (EcMAT, EcMTAN), Mg2+, pH 7.5, 37 °C, 24 h; selective for (S)
T1 construct: gene safC; recombinant in E. coli BL21(DE3), His-trap purified

[2] = target: T2, RnCOMT (Rattus norvegicus, UniProt P22734); experiment: HPLC, O-methylation to C6/C7-OMe-7b; settings: SAM generated in situ (EcMAT, EcMTAN), Mg2+, pH 7.5, 37 °C, 24 h; not enantioselective
T2 construct: gene Comt; recombinant in E. coli BL21(DE3), used as lysate
T2 sequence (P22734 1-264): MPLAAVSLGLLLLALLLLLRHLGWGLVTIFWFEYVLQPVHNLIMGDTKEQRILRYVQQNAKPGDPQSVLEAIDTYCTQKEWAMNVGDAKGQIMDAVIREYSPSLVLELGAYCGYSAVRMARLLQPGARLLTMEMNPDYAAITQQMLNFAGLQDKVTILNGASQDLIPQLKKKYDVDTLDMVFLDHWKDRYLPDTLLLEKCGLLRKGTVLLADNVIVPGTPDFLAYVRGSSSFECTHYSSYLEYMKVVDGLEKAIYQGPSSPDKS

[3] = target: T1, MxSafC; experiment: HPLC, O-methylation to C6-OMe-7a; assay type: biochemical; settings: SAM generated in situ (EcMAT, EcMTAN), Mg2+, pH 7.5, 37 °C, 24 h; selective for (S)
[4] = target: T2, RnCOMT; experiment: HPLC, O-methylation to C6-OMe product; settings: SAM generated in situ (EcMAT, EcMTAN), Mg2+, pH 7.5, 37 °C, 24 h; not enantioselective

SMILES	HPLC, O-methylation to C6-OMe-7b [1]	HPLC, O-methylation to C6/C7-OMe-7b [2]	HPLC, O-methylation to C6-OMe-7a [3]	HPLC, O-methylation to C6-OMe product [4]
Oc1cc2c(cc1O)[C@H](c1ccccc1)NCC2 [5b, (S)-5b]	MxSafC was found to be selective towards both (S)-5a and (S)-5b	C6:C7-OMe-7b was observed by ^1H-NMR when 5b was used as the substrate	–	–
Oc1cc2c(cc1O)[C@H](C1CCCCC1)NCC2 [5a, (S)-5a]	–	–	MxSafC was found to be selective towards both (S)-5a and (S)-5b	using 5a as the substrate, gave remarkable regioselectivity
